This note sets out measurements from PubChem BioAssay (NCI).

Molecules are shown by their SMILES.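 In this assay, cells in 96-well plates receive the compound at five concentrations for 48 hours. Endpoints are linearly interpolated between the surrounding concentrations. GI50 = concentration required for 50% inhibition of growth. At the TGI there is no net growth.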

Some test systems named below: EKVX NSCLC; MALME-3M melanoma; SN12C renal; UO-31 renal; HOP-92 NSCLC; T-47D breast; CCRF-CEM leukemia; SK-OV-3 ovarian; HS 578T breast; TK-10 renal.
Experiment in all cases: growth of human tumour cells (NCI), 48 h

For `COc1ccc(NC([Se])=NC23CC4CC(CC(C4)C2)C3)cc1`, the GI50 is 1.97 µM in the assay on EKVX NSCLC; 0.653 µM in the assay with MALME-3M melanoma; 1.61 µM with SN12C renal; 1.74 µM with UO-31 renal; 2.34 µM in the assay on HOP-92 NSCLC; 1.88 µM in the assay with T-47D breast. The GI50 in the assay with CCRF-CEM leukemia is 0.705 µM; in the assay with SK-OV-3 ovarian, 2.45 µM; with HS 578T breast, 2.08 µM; in the assay with TK-10 renal, 2.1 µM. Moreover, the TGI in the assay on EKVX NSCLC stood at 4.74 µM; in the assay with MALME-3M melanoma it was 3.74 µM; in the assay with SN12C renal, 8.81 µM; with UO-31 renal it was 4.11 µM; in the assay with HOP-92 NSCLC, 14.2 µM; with T-47D breast, 4.89 µM. Besides, the TGI stood at 4.97 µM with CCRF-CEM leukemia, 7.43 µM in the assay with SK-OV-3 ovarian, 7.89 µM in the assay on HS 578T breast and 5.52 µM in the assay on TK-10 renal.
As for `Cc1ccc2c(-c3ccnc(Nc4ccccc4)n3)c(-c3ccc(F)cc3)nn2n1`, the GI50 is 6.53 µM with EKVX NSCLC; 13.9 µM in the assay with MALME-3M melanoma; 4.85 µM with SN12C renal; 1.01 µM in the assay on UO-31 renal; 3.33 µM in the assay with HOP-92 NSCLC; 7.45 µM with T-47D breast. The GI50 is 5.81 µM in the assay with CCRF-CEM leukemia, 1.39 µM in the assay on SK-OV-3 ovarian, 8.51 µM in the assay with HS 578T breast and 1.62 µM in the assay with TK-10 renal. Further, the TGI was > 25 µM with EKVX NSCLC; > 25 µM in the assay with MALME-3M melanoma; > 25 µM in the assay with SN12C renal; > 24.1 µM in the assay on UO-31 renal; > 25 µM in the assay with HOP-92 NSCLC; > 25 µM in the assay with T-47D breast. Moreover, the TGI with CCRF-CEM leukemia is > 25 µM; with SK-OV-3 ovarian, > 25 µM; in the assay with HS 578T breast, > 25 µM; with TK-10 renal, 10.8 µM.
In the case of `O=C(O)CCCSc1ccccc1`, the TGI with EKVX NSCLC, in the assay with MALME-3M melanoma, in the assay with SN12C renal, with UO-31 renal, with HOP-92 NSCLC and in the assay with T-47D breast was > 100 µM in each case. In addition, the TGI in the assay with CCRF-CEM leukemia, in the assay on SK-OV-3 ovarian, in the assay on HS 578T breast and with TK-10 renal was > 100 µM throughout.
